Measurements published in patent publication US10464941B2, “Therapeutic compounds” (REGENTS OF THE UNIVERSITY OF MINNESOTA, priority 2015, dated 2019).

Tests used:
IL-6 = experiment: Proinflammatory cytokine IL-6 ELISA in LPS-stimulated microglia (BV2); format: cell-based, murine
Procedure: Murine primary microglia cell line (BV2) were cultured in DMEM with 10% heat-inactivated fetal bovine serum (FBS), 100 U/ml penicillin, 100 μg/ml streptomycin, 10 μg/ml gentamycin (all from Invitrogen, CA, USA). Cells were harvested on reaching 80% to 90% confluence by treating with 0.25% trypsin containing 1 mM EDTA for 5 minutes at 37° C. Cells (20,000/200 μl) were seeded on flat bottom 96 well plates and treated for 3 hrs with equimolar concentration (200 nM) of MCC22/Minocycline for 3 hrs followed by overnight treatment with LPS (1 μg/ml). At the end of the experiment, IL-6 was estimated by Sandwich ELISA using mouse IL-6 DuoSet kit (R&D Systems, Minneapolis, Minn.) in the culture supernatant.

WDR neuron = experiment: Extracellular recordings from dorsal horn neurons, von Frey stimulation; format: in vivo, mice; conditions: hind paw, 5 sec, compared with control and vehicle
Procedure: Mice were anesthetized with isoflurane while maintaining core temperature at 37° C. A laminectomy exposed the lumbar spinal cord then mice were secured in a spinal frame. Extracellular recordings from dorsal horn neurons with receptive fields located on the plantar surface of the hind paw were obtained using glass microelectrodes lowered into the spinal cord.
Receptive fields (RFs) of dorsal horn neurons were identified by stroking the skin and applying mild pressure. Neurons were classified functionally as low threshold (LT), wide dynamic range (WDR) and high threshold (HT) using mechanical stimulation of graded intensities. RF areas were mapped using von Frey filaments. The discharge rate of spontaneous activity was recorded for 3 minutes. Mechanical response thresholds were determined and an increasing series of von Frey filaments were applied, each for 5 sec. Action potentials and the time of stimulus application were stored on a computer. Comparisons of discharge rates were made between vehicle and MCC22.

[1] = test system: CFA-induced mechanical hyperalgesia mouse model; experiment: Complete Freund's Adjuvant (CFA) mechanical hyperalgesia, electronic von Frey; format: in vivo, mice; conditions: i.t.
Procedure: Before injection of CFA baseline withdrawal thresholds (g) were obtained from a mechanical stimulation using an electronic von Frey anesthesiometer (IITC Life Sciences, Woodland Hills, USA) by applying an accurate force on both left and right hind paw. (2,3) The left hindpaws were then injected (intraplantar) with a 50% solution of CFA (10 μg, Sigma-Aldrich) in water while the mice are under isoflurane anesthesia (10). Twenty-four hours later the withdrawal threshold (g) was again measured prior to and after the test compound i.t. at 10, 20, 30 and 60 minutes to determine the peak time and subsequent ED50. % MPE was calculated ((Time-point withdrawal threshold with drug−CFA withdrawal threshold)/(Day 0 withdrawal threshold−CFA withdrawal threshold))*100 (Wade, C. L., et al., PLoS One 2013, 8, e79239/1-e79239/11, 11 pp; Martinov, T., et al., J Vis Exp 2013, e51212; Sorge, R. E., et al., J. Neurosci. 2011, 31, 15450-15454).

[2] = test system: mice with cisplatin-induced hyperalgesia; experiment: Cisplatin-induced peripheral neuropathy, mechanical hyperalgesia (von Frey); format: in vivo, C3H/HeJ mice; conditions: cisplatin model
Procedure: Adult male C3H/HeJ mice were tested for mechanical paw withdrawal responses on 2 consecutive days prior to treatment by determining the frequency of hind paw withdrawal evoked by a standard von Frey monofilament with a bending force of 3.9 mN applied to the plantar surface of the hind paws. Mice were then given 1 mg/kg of cisplatin intraperitoneal (i.p.) daily for 7 consecutive days and on day 14 post-injection, mechanical hyperalgesia was assessed. Compounds were administered intrathecally (i.t.) and i.p. weekly to determine peak time effects and ED50/80.

HbSS and HbAS mice = experiment: Sickle cell disease mice, paw withdrawal frequency; format: in vivo, Townes transgenic humanized mice; conditions: 8.0 μmol/kg i.p.
Procedure: Townes transgenic humanized mice expressing sickle hemoglobin (HbSS/HbAS) and normal human hemoglobin (HbAA) controls (4-12 weeks of age, 20-25 g) were used in this study. Mice were characterized for hyperalgesia by quantifying cutaneous mechanical sensitivity of the hind paw and forelimb grip force. Mechanical sensitivity of the hind paw was evaluated by determining the frequency of withdrawal responses and paw withdrawal threshold. The frequency of paw withdrawal evoked by a standard von Frey monofilament with a bending force of 9.3 mN applied to the plantar surface of the hind paws was determined from 10 trials on each paw. Withdrawal threshold was determined using an electronic von Frey anesthesiometer pressed against the plantar surface with increasing force until withdrawal occurred. To assess deep tissue hyperalgesia, the tensile force of peak forelimb exertion was measured using a computerized grip force meter. To evaluate the analgesic effects of MCC22, paw withdrawal frequency was determined before and at various times after administration of […] i.p.

Cc1ccc(N(CCCN2CCC(Cc3ccc(C(N)=O)cc3)CC2)C(=O)C2CCN(C(=O)COCC(=O)NCCCCCCCCCCNC(=O)COCC(=O)N[C@H]3CC[C@@]4(O)C5Cc6ccc(O)c7c6[C@@]4(CCN5C)[C@H]3O7)CC2)cc1Cl [Compound 3e, N-(3-(4-(4-carbamoylbenzyl)piperidin-1-yl)propyl)-N-(3-chloro-4-methylphenyl)-1-(22-(((4aS,7S,7aR,12bS)-4a,9-dihydroxy-3-methyl-2,3,4,4a,5,6,7,7a-octahydro-1H-4,12-methanobenzofuro[3,2-e]isoquinolin-7-yl)amino)-5,18,22-trioxo-3,20-dioxa-6,17-diazadocosan-1-oyl)piperidine-4-carboxamide]
attenuation of IL-6 secretion (IL-6; 200 nM, 3 hrs pretreatment, LPS 1 μg/ml overnight, microglial supernatant): ~30%
IL-6 secretion when combined with minocycline (IL-6; MCC22 combined with minocycline, LPS): further attenuated
responses of WDR neuron evoked by 1.0 g (9.3 mN) von Frey filament (WDR neuron): significantly reduced responses
ED50 values (95% CI) CFA (mechanical) [1]: 0.019 pmol/mouse
ED50 (95% CI) i.p. ([2]; i.p.): 3.07 pmol/mouse
peak time ([2]; i.p.): 30 min
tolerance ([2]; i.p.): did not exhibit tolerance
ED50 (95% CI) i.t. ([2]; i.t.): 0.0004 pmol/mouse
change of potency with time ([2]; i.t.): increased in potency over 115 days
peak time ([2]; i.t.): 20 min
tolerance ([2]; i.t.): no tolerance
time to reduced hyperalgesia (decrease in paw withdrawal frequency) (HbSS and HbAS mice): ≤ 30 min
